Measurements from patent US12528838B2, “Cyclic dominant negative competence stimulating peptide analogs and methods of treating Streptococcus pneumoniae infections” (priority 2019, dated 2026).
Bridge positions count the residues as written; N and C are the ends. Square brackets hold non-standard residues; d marks the D form. Peptide text beside a SMILES is read from it. Dap = NC[C@H](N)C(=O)O

Legend:
[1] = Stability in mouse lungs (BAL fluid analysed by HPLC after intratracheal instillation); assay type: in vivo, CD1 mice; conditions: both sexes, CD1, cell-free bronchoalveolar lavage fluid (BALF), inhaled or intranasal, 400 ug, 400 μg intratracheally, FIG. 14B
Procedure: (§1) FIGS. 14A-14D. Pharmacological properties of dnCSPs. (FIG. 14A) CSPs were treated with trypsin/chymotrypsin and their degradation monitored by HPLC. (FIG. 14B) CD1 mice (3/cohort, males & females) were intratracheally instilled 400 μg of native or dnCSPs. Mice were bronchial alveolar lavaged (BAL) at indicated times, and cell free BAL fluid (BALF) were analyzed by HPLC. […] (FIGS. 14C-14D) CD1 mice (5/cohorts, males & females) were intratracheally inoculated with MTD doses of native and dnCSPs (200 μg-20 mg/kg). […] Lung sections (FIGS. 14C-14D) and other organs were H&E stained. b=bronchioles; v=vessels.

ComD2 receptor = ComD2 receptor (Streptococcus pneumoniae serotype 4, UniProt A0A0H2US84); experiment: cell-based; assay type: cell-based
Sequence of ComD2 receptor (A0A0H2US84 entry or part of it): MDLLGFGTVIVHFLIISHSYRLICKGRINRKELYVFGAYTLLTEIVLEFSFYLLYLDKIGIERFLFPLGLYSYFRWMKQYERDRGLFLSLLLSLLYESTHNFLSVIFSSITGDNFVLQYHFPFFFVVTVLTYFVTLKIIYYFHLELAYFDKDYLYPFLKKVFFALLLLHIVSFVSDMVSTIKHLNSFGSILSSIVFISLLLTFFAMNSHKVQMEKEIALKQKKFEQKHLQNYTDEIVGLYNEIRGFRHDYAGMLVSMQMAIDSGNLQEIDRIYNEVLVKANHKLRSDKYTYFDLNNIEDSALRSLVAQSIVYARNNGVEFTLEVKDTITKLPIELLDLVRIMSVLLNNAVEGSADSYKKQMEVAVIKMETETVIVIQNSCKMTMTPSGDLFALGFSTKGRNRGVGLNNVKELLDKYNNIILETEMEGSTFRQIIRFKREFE
Excerpt: Biological evaluation of cyclic dnCSPs. […] All assays will be performed in triplicates and independently three times. Serial dilutions of dnCSPs will be conducted to determine the EC50 and IC50 values of promising dnCSPs through initial screening. Data from reporter assays will be analyzed using the GraphPad Prism software. The lead dnCSPs will be assessed for their therapeutic potential using multiple in vitro assays, including attenuation of ComX-induction (reporter systems), genetic transformation, allolysis (zymogram assays), and release of PLY (hemolysis & Western blots). Lastly, the pneumococcal competence system regulates biofilm formation, which is important for the pathogenesis of […]. The ability of the dnCSPs to inhibit biofilm formation will be evaluated after 24 hr of growth on 1% BSA coated coverslips placed in flat-bottom polystyrene tissue culture plates by staining with FilmTracer LIVE/DEAD Biofilm viability kit (Invitrogen, L10316), and visualized using a confocal microscope and Z-stacked to construct 3D-images.

[2] = Proteolytic stability in trypsin/chymotrypsin solution, monitored by RP-HPLC; assay type: in vitro ADME
Procedure: FIG. 4E. […] All peptides were treated with trypsin/chymotrypsin (0.05 μg mL-1 enzyme concentration). RP-HPLC was used to monitor the progress of degradation. All peptides have a half-life about 3 hours. After 3 to 4 hours, some degradation product of CSP1-cyc-E1A(Dap6E10) start to precipitate out, resulting in the plateau in the curve.
as §1
The proteolytic stability of CSP1-E1A-cyc(Dap6E10) in Trypsin and Chymotrypsin solution was tested and the half-life measured. […] To test that, CSP1-E1A-des-K16K17-cyc(Dap6E10) was manually synthesized and evaluated its activity.
Pharmacological evaluation of lead cyclic dnCSPs. Before moving the most promising dnCSPs into mouse models, their pharmacological properties will be evaluated. As these are peptide-based drugs, first assessed are their metabolic stability. These assays will include prolonged incubation in physiologically-relevant buffers with varying pH values, stability towards degradation by trypsin and chymotrypsin, and stability in mouse lungs, plasma and serum to simulate in vivo proteolytic environments. Degradation of dnCSPs will be quantified using HPLC. […] The MTD will be defined as the maximum dose that causes a 15% loss of initial weight. […] Systemic toxicity will be assessed by performing blood chemistry and complete blood count (CBC) with differential. Major organs (e.g., liver, kidney, heart, lung, etc.) and sternum (to test genotoxicity) will be collected for histopathological and toxicological analysis. […]

ComD1 receptor = ComD1 receptor (Streptococcus pneumoniae serotype 2, UniProt A0A0H2ZM50); experiment: cell-based; assay type: cell-based
Sequence of ComD1 receptor (A0A0H2ZM50 entry or part of it): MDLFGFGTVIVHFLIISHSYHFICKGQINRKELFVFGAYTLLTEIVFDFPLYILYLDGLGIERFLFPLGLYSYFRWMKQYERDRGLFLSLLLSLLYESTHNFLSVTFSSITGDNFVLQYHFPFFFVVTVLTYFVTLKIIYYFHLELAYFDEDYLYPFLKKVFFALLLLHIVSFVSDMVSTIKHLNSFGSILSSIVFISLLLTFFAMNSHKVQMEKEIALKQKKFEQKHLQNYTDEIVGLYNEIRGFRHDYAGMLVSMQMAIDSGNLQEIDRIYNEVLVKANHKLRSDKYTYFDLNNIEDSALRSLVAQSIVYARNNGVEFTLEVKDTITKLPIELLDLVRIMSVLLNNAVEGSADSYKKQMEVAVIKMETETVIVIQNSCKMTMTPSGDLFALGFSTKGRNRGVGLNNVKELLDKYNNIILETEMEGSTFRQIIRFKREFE
Excerpt: Biological evaluation of cyclic dnCSPs. The cyclic dnCSPs will be assessed for inhibition of competence induction using the β-gal, lux (FIG. 11) or luc (FIG. 15) reporter systems we have optimized for the analysis of a large number of signal variants in 96-well plates. All assays will be performed in triplicates and independently three times. Serial dilutions of dnCSPs will be conducted to determine the EC50 and IC50 values of promising dnCSPs through initial screening. Data from reporter assays will be analyzed using the GraphPad Prism software. The lead dnCSPs will be assessed for their therapeutic potential using multiple in vitro assays, including attenuation of ComX-induction (reporter systems), genetic transformation, allolysis (zymogram assays), and release of PLY (hemolysis & Western blots). Lastly, the pneumococcal competence system regulates biofilm formation, which is important for the pathogenesis of […]. The ability of the dnCSPs to inhibit biofilm formation will be evaluated after 24 hr of growth on 1% BSA coated coverslips placed in flat-bottom polystyrene tissue culture plates by staining with FilmTracer LIVE/DEAD Biofilm viability kit (Invitrogen, L10316), and visualized using a confocal microscope and Z-stacked to construct 3D-images.

[3] = in vitro, FIG. 14A, read-out: half-life (converted)

Row | SMILES | half-life [1] | IC50 (ComD2 receptor) | half-life [2, 3] | IC50 (ComD1 receptor) | half-life ([2]; counting active degradation product CSP1-E1A-des-K16K17-cyc(Dap6E10), read-out: effective half-life)
1 | CC[C@H](C)[C@H](NC(=O)[C@H](Cc1ccccc1)NC(=O)[C@H](CC(=O)O)NC(=O)[C@H](CCCNC(=N)N)NC(=O)[C@H](Cc1ccccc1)NC(=O)[C@H](Cc1ccccc1)NC(=O)[C@H](CCCCN)NC(=O)[C@H](CO)NC(=O)[C@H](CC(C)C)NC(=O)[C@H](CCCNC(=N)N)NC(=O)[C@H](CCSC)NC(=O)[C@@H](N)CCC(=O)O)C(=O)N[C@@H](CC(C)C)C(=O)N[C@@H](CCC(N)=O)C(=O)N[C@@H](CCCNC(=N)N)C(=O)N[C@@H](CCCCN)C(=O)N[C@@H](CCCCN)C(=O)O [CSP1, reference compound] | 1.5 h |  |  |  | 
2 | CC[C@H](C)[C@H](NC(=O)[C@H](Cc1ccccc1)NC(=O)[C@H](CC(=O)O)NC(=O)[C@H](CCCNC(=N)N)NC(=O)[C@H](Cc1ccccc1)NC(=O)[C@H](Cc1ccccc1)NC(=O)[C@H](CCCCN)NC(=O)[C@H](CO)NC(=O)[C@H](CC(C)C)NC(=O)[C@H](CCCNC(=N)N)NC(=O)[C@H](CCSC)NC(=O)[C@H](C)N)C(=O)N[C@@H](CC(C)C)C(=O)N[C@@H](CCC(N)=O)C(=O)N[C@@H](CCCNC(=N)N)C(=O)N[C@@H](CCCCN)C(=O)N[C@@H](CCCCN)C(=O)O [CSP1-E1A, A-M-R-L-S-K-F-F-R-D-F-I-L-Q-R-K-K] | 1.5 h | > 10000 nM | 1.5 h |  | 
3 | CC[C@H](C)[C@H](NC(=O)[C@H](Cc1ccccc1)NC(=O)[C@@H]1CCC(=O)NC[C@H](NC(=O)[C@H](CO)NC(=O)[C@H](CC(C)C)NC(=O)[C@H](CCCNC(=N)N)NC(=O)[C@H](CCSC)NC(=O)[C@H](C)N)C(=O)N[C@@H](Cc2ccccc2)C(=O)N[C@@H](Cc2ccccc2)C(=O)N[C@@H](CCCNC(=N)N)C(=O)N1)C(=O)N[C@@H](CC(C)C)C(=O)N[C@@H](CCC(N)=O)C(=O)N[C@@H](CCCNC(=N)N)C(=O)N[C@@H](CCCCN)C(=O)N[C@@H](CCCCN)C(=O)O [CSP1-E1A-cyc(Dap6E10), A-M-R-L-S-(Dap-F-F-R-E)-F-I-L-Q-R-K-K] (H-AMRLS[Dap]FFREFILQRKK-OH; lactam 6-10; N-terminus and C-terminus assumed) |  | 182 nM |  | 75.8 nM | > 4 h
4 | CC[C@H](C)[C@H](NC(=O)[C@H](CCCNC(=N)N)NC(=O)[C@H](CCSC)NC(=O)[C@H](C)N)C(=O)N[C@@H](CO)C(=O)N[C@@H](CCCNC(=N)N)C(=O)N[C@H](C(=O)N[C@H](C(=O)N[C@@H](CC(C)C)C(=O)N[C@H](CC(=O)O)C(=O)N[C@@H](Cc1ccccc1)C(=O)N[C@@H](CC(C)C)C(=O)N[C@@H](Cc1ccccc1)C(=O)N[C@@H](CC(C)C)C(=O)N[C@@H](CCCNC(=N)N)C(=O)N[C@@H](CCCCN)C(=O)N[C@@H](CCCCN)C(=O)O)[C@@H](C)CC)[C@@H](C)CC [CSP2-E1Ad10, A-M-R-I-S-R-I-I-L-d-F-L-F-L-R-K-K] (H-AMRISRIIL[dD]FLFLRKK-OH; N-terminus and C-terminus assumed) | > 3 h |  | > 3 h |  | 
5 | CC[C@H](C)[C@H](NC(=O)[C@H](CCCNC(=N)N)NC(=O)[C@H](CCSC)NC(=O)[C@@H](N)CCC(=O)O)C(=O)N[C@@H](CO)C(=O)N[C@@H](CCCNC(=N)N)C(=O)N[C@H](C(=O)N[C@H](C(=O)N[C@@H](CC(C)C)C(=O)N[C@H](CC(=O)O)C(=O)N[C@@H](Cc1ccccc1)C(=O)N[C@@H](CC(C)C)C(=O)N[C@@H](Cc1ccccc1)C(=O)N[C@@H](CC(C)C)C(=O)N[C@@H](CCCNC(=N)N)C(=O)N[C@@H](CCCCN)C(=O)N[C@@H](CCCCN)C(=O)O)[C@@H](C)CC)[C@@H](C)CC [CSP2-d10, E-M-R-I-S-R-I-I-L-d-F-L-F-L-R-K-K] (H-EMRISRIIL[dD]FLFLRKK-OH; N-terminus and C-terminus assumed) | 2.5 h |  |  |  | 
